Experimental data reported in paper PMC8405607 (British Journal of Cancer, 2021).

What was measured:
GDF-15 = assay: indirect response PK/PD model of serum GDF-15; type: in vivo, human
Text: A total of 1919 observations (924 plasma PK, 717 platelet, and 278 GDF-15 measurements) and 20 platelet transfusion events derived from 46 patients were included in the dataset (data cutoff, January 2016). […] We used the stochastic approximation of the expectation-maximisation (SAEM) algorithm[13] implemented in the Monolix software (version 4.3.2, Lixoft) to estimate the fixed (population-level typical values) and random (inter-individual variability) effects for each model parameter and a residual error.
A semi-mechanistic model mimicking hematopoietic cell maturation and regulation was developed to describe the time course of platelet kinetics and drug action on immature cells and modified from Friberg et al.[14] […]
Models were evaluated based on the change in the Akaike’s information criterion (AIC) value, the convergence of the SAEM algorithm, the precision of the parameter estimates (NLME derived % relative standard error [RSE%]) and decreases in IIV and residual variability. […] The predictive performance of the final models was evaluated by simulating 500 datasets using parameter estimates (fixed and random effects) and plotting a visual predictive check (Supplementary Fig. S5). For serum GDF-15, serum concentration levels above the upper limit of quantification (>50,000 pg/mL) were handled as right-censored data. […]

[1] = system: p53 target genes in SJSA-1 tumours; assay: PK/PD experiment in SJSA-1 tumour-bearing mice (plasma exposure, p53 target gene mRNA); details: 100 mg/kg
Procedure: For PK/PD experiments, animals were randomised into groups of three, and tissue samples were collected at 0, 1, 3, 8, 16, 24 and 48 h. At the times indicated, animals were anaesthetised by exposure to 2–3% v/v isoflurane in medical oxygen.
Subcutaneous SJSA-1, 778 and LP6 tumours were induced by injecting tumour cells expanded in vitro into the right flank of nude mice. […] The tumours were excised, weighed and rapidly frozen in liquid nitrogen. Later, they were cryogenically dry pulverised using the CryoPrep™ system (model CP-02, Covaris).
The total RNA was purified from cell pellets using the QIAshredder (cat # 79654, Qiagen) and RNeasy Mini Kit (74106, Qiagen) according to the manufacturer’s instructions, with the exception that no DNA digestion was performed. Total RNA was quantitated using the spectrophotometer ND-1000 Nanodrop®. Quantitative reverse transcriptase PCR (qRT-PCR) was set up in triplicate per sample using either the One-Step RT qPCR Master Mix Plus (RT-QPRT-032X, Eurogentec) or the iTaq™ Universal Probes One-Step Kit (#1725141), with primers from TaqMan Gene Expression assays (20 × probe dye FAM™ [or VIC]-TAMRA [or MGB]; Applied Biosystems), including control primers (GUS-β 4310888E-1012026) and primers for the target genes (CDKN1A Hs00355782_m1; BBC3 Hs00248075_m1; MDM2 Hs01066930_m1). Alternatively, we performed a multiplex gene expression analysis on 104 p53 target genes with the NanoString assay.

[2] = human, in vivo
Procedure: The protocol allowed switching to one or more of three alternative regimens; of these, the intermittent dosing regimen of 3qw for 2 weeks on/1 week off was investigated.
Safety was assessed according to the National Cancer Institute Common Terminology Criteria for Adverse Events (NCI-CTCAE) v4.03. […] Fresh biopsies were collected on day 8 of cycle 1 along with a matching PK sample (6 h ± 2 h post-dose).

COc1cc2c(cc1OC(C)C)[C@H](c1ccc(Cl)cc1)N(c1ccc(N(C)C[C@H]3CC[C@H](N4CCN(C)C(=O)C4)CC3)cc1)C(=O)C2 [CGM097]
GDF-15 level prior to the next treatment cycle (GDF-15; intermittent 2 weeks on/1 week off dosing): return of GDF-15 level to baseline | Sg, Drug potency (GDF-15 production) (GDF-15; population estimate): 0.00078 mL/ng | PUMA induction, Emax ([1]; SJSA-1 tumours): 19 fold | p21 induction, maximum effect Emax ([1]; SJSA-1 tumours): 41 fold | HDM2 increase in expression ([1]; SJSA-1 tumours, compared with p21 and PUMA): lowest increase | time at which pharmacological activity reached basal levels ([1]; post treatment): 48 h | ALT increased all grades, suspected related to study drug [2]: 5 (10) n % | AST increased all grades, suspected related to study drug [2]: 5 (10) n % | Abdominal pain upper all grades, suspected related to study drug [2]: 6 (12) n % | Anaemia all grades, suspected related to study drug [2]: 8 (16) n % | Anaemia grade 3 or 4, suspected related to study drug [2]: 4 (7.8) n % | Asthenia all grades, suspected related to study drug [2]: 7 (14) n % | Blood CPK increased all grades, suspected related to study drug [2]: 6 (12) n % | Decreased appetite all grades, suspected related to study drug [2]: 9 (18) n % | Diarrhoea all grades, suspected related to study drug [2]: 11 (22) n % | Dizziness all grades, suspected related to study drug [2]: 5 (10) n % | Dysgeusia all grades, suspected related to study drug [2]: 7 (14) n % | Granulocytopenia grade 3 or 4, suspected related to study drug [2]: 1 (2.0) n % | Hyperlipasaemia grade 3 or 4, suspected related to study drug [2]: 1 (2.0) n % | Hyperlipidaemia grade 3 or 4, suspected related to study drug [2]: 1 (2.0) n % | Hypoalbuminemia all grades, suspected related to study drug [2]: 5 (10) n % | Leukopenia grade 3 or 4, suspected related to study drug [2]: 4 (7.8) n % | Lipase increased all grades, suspected related to study drug [2]: 6 (12) n % | Lipase increased grade 3 or 4, suspected related to study drug [2]: 5 (9.8) n % | Lymphocyte count decreased grade 3 or 4, suspected related to study drug [2]: 1 (2.0) n % | Lymphopenia all grades, suspected related to study drug [2]: 10 (20) n % | Nausea grade 3 or 4, suspected related to study drug [2]: 2 (3.9) n % | Neutropenia all grades, suspected related to study drug [2]: 11 (22) n % | Neutrophil count decreased grade 3 or 4, suspected related to study drug [2]: 2 (3.9) n % | Proteinuria grade 3 or 4, suspected related to study drug [2]: 1 (2.0) n % | White blood cell count decreased grade 3 or 4, suspected related to study drug [2]: 4 (7.8) n % | anaemia, any grade AE [2]: 18 n | fatigue, any grade AE [2]: 18 n | haematologic AESIs regardless of study drug relationship [2]: 64.7% | haematologic AESIs suspected to be treatment-related [2]: 51% | nausea, any grade AE [2]: 24 n | patients with at least one AE leading to study drug discontinuation [2]: five | patients with at least one grade 4 AE [2]: 10 patients | patients with grade 3 AEs regardless of study drug relationship [2]: Twenty-five | patients with grade 3 AEs suspected to be study drug-related [2]: 11 patients | patients with grade 4 AEs regardless of study drug relationship [2]: 12 patients | thrombocytopenia AESI [2]: 43.1% | thrombocytopenia, any grade AE [2]: 22 n | vomiting, any grade AE [2]: 18 n
